Each structure is given as a SMILES string.

Test [1] has as its target T1, M2PYK (Homo sapiens, UniProt P14618).
T1 construct: and N-terminal domain (blue, residues 13–43. Residues 1–12, as well as additional residues from the His6-tagged construct); made in house; host or cells: Escherichia coli BL21(DE3), pET28a
Briefly: X-ray co-crystal structures of M2PYK with amino acids. The note with it: wild-type M2PYK co-crystallised with the amino acid. The protocol:
Single crystals of M2PYK were obtained at 17°C by vapour diffusion using the hanging-drop technique. The drops were formed by mixing 1.5 µl of wild-type M2PYK (20 mg/ml) solution containing ligands with 1.5 µl of reservoir solution (composed of 11–16% PEG 3350, 100 mM sodium cacodylate, 50 mM MgCl2, and 100 mM KCl). […] The pH for obtaining optimal crystals was 7.2–7.8. Before data collection, crystals were dipped in a freezing solution consisting of reservoir solution supplemented with the same concentration of ligands as in the original solution, as well as up to 35% PEG 3350, which eliminated the appearance of ice rings. Diffraction data were collected at the Diamond synchrotron radiation facility in Oxfordshire, U.K. on beamline I03 (for the M2PYK/Ala structure), I04-1 (for the M2PYK/Phe and the M2PYK/Trp structures), and I24 (for the M2PYK/Ser structure). All datasets were obtained from a single crystal flash-frozen in liquid nitrogen. A more detailed description and discussion of the crystallisation trials is in the Supplementary Material.
All four M2PYK structures were solved by molecular replacement using the program PHASER [40]. A monomer (Chain A) from the previously determined tetrameric structure of M2PYK (in R-state, PDB ID: 4B2D) served as the search model for the M2PYK/Ser structure. Chain A of a different M2PYK structure (in T-state, PDB ID: 4FXJ) was used as the search model for the M2PYK/Phe, M2PYK/Ala, and M2PYK/Trp structures. There were clear molecular replacement solutions for all structures. The resulting models were then subjected to 10 cycles of rigid body refinement using the program REFMAC [41]. Afterwards, manual changes were made to models to adjust side chain conformations and to add additional residues to the N terminus using COOT [42]. The models were then subjected to several rounds of translation libration screw refinement and restrained refinement, and ligand molecules were added where clear unbiased Fo–Fc electron density was observed. Water molecules were added to the model using COOT, and after several rounds of restrained refinement, R/Rfree values converged.

Test [2] deals with T1, M2PYK. Description: Analytical gel chromatography of M2PYK oligomerisation/dissociation. The note with it: 10 mM amino acid; 0.1 mg/ml M2PYK; PBS-CM pH 7.4, room temperature, 12 h. The protocol: Analytical gel chromatography was performed to characterise the oligomerisation/dissociation of M2PYK in the presence/absence of different amino acids. Aliquots of 400 µl of 0.1 mg/ml purified M2PYK were incubated with or without 10 mM amino acids in PBS-CM at room temperature at pH 7.4 overnight. After the incubation, samples were loaded independently onto a Superdex 200 PC 3.2/30 gel-filtration column. Samples of 25 µl were injected, and the column flow rate was maintained at 0.1 ml/min. Protein peaks were monitored using the absorbance at both 280 and 214 nm. The retention volumes for the M2PYK peaks were the same as those identified by SEC-MALS as monomer and tetramer peaks (using the same Superdex 200 column) in our previous study.
Analytical gel chromatography was used to investigate the effects of amino acids on the oligomerisation of M2PYK. […] Dissociation studies of M2PYK using SEC-MALS [13] and ultracentrifugation show the predominant forms in solution are tetramer and monomer.

Test [3] concerns the target T2, M1PYK (Homo sapiens, UniProt P14618).
T2 construct: made in house; host or cells: Escherichia coli BL21(DE3), pET28a
Briefly: PYK activity modulator screen (LDH-coupled enzymatic activity assay). Type of test: biochemical. The note with it: 2.5 mM ligand; sub-saturating PEP and ADP; pH 7.4, 37°C; relative to no ligand. The protocol: For the identification of PYK activity modulators, enzymatic activity assays were performed as follows. A 1.9 µl aliquot of 20 mg/ml M1 or M2PYK in PBS-CM was added individually into […] of different amino acids at 5 mM in PBS-CM at pH 7.4 followed by an incubation at 37°C for 10 min. Then, the same volume of assay buffer [PBS-CM supplemented with 10 mM MgCl2, 100 mM KCl, 1 mM NADH, 40 µmol/min ml lactate dehydrogenase (LDH), as well as sub-saturating substrates PEP (1 mM) and ADP (0.8 mM)] was added into the protein solution and mixed (so the concentrations of all reagents were halved). The decrease in absorbance at 340 nm (the absorbance of NADH) was measured for 5 min at 37°C using a plate reader. PEP, ADP, LDH, NADH, FBP and all amino acids were from Sigma–Aldrich.
FBP was used as a positive control. The reaction was performed after pre-incubation in the presence of sub-saturating substrates in PBS at pH 7.4 at 37°C as described in Experimental Procedures.

T1 sequence (P14618 whole entry, the tested form may be a part): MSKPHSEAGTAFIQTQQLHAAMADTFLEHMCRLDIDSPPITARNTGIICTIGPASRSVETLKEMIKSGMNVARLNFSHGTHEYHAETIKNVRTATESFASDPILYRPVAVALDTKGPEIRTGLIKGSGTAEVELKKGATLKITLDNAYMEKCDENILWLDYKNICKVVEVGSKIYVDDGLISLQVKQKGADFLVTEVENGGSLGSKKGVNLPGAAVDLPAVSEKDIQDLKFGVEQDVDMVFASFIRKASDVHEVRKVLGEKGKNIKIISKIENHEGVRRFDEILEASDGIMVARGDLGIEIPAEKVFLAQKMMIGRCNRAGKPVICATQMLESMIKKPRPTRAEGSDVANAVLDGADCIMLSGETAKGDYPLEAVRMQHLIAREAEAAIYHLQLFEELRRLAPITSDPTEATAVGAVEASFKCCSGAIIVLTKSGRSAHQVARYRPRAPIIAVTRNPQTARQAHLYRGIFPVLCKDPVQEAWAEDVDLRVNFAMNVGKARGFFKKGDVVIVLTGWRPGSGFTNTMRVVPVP
T2 sequence (P14618 1-531 isoform P14618-2): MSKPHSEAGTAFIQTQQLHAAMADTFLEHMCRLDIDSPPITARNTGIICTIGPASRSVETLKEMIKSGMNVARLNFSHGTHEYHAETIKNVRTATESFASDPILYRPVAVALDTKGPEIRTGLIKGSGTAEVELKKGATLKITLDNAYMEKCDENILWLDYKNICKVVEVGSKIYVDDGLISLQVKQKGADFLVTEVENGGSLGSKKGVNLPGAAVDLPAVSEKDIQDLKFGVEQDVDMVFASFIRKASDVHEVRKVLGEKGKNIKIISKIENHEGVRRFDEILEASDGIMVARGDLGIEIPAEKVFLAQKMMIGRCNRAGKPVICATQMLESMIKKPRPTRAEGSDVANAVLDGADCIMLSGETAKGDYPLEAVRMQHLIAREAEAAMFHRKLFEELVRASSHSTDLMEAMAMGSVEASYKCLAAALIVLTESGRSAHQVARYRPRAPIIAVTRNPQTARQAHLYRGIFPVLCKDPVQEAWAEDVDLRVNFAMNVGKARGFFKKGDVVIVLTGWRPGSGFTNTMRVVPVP

Regarding `N[C@@H](Cc1ccccc1)C(=O)O` [phenylalanine, L-phenylalanine], the “Conformation of M2PYK tetramer in co-crystal structure” value in test [1] is listed as “T-state”. The “effect on M2PYK oligomerisation (tetramer versus monomer)” value in test [2] is given as “stabilised tetramers over monomers”. Besides, in test [3], the “inhibition of M1PYK activity” value is listed as 10%.

The record behind these values is paper PMC5980995, “An allostatic mechanism for M2 pyruvate kinase as an amino-acid sensor” (Biochemical Journal, 2018).
